Assay results: ChEMBL document CHEMBL4725478, “Spiroindoline-Capped Selective HDAC6 Inhibitors: Design, Synthesis, Structural Analysis, and Biological Evaluation” (ACS Med Chem Lett, 2020)
pIC50: −log10 of the molar value. The source made the active and inactive calls. The rule behind the calls is not given here.

Key:
[1] = molecular target: T1, Protein deacetylase HDAC6 (Homo sapiens, UniProt Q9UBN7); test: Inhibition of full length N-terminal GST-tagged human HDAC6 expressed in baculovirus expression system using ZMAL as substrate incubated for 90 mins by fluorescence assay
T1 sequence (Q9UBN7 whole entry): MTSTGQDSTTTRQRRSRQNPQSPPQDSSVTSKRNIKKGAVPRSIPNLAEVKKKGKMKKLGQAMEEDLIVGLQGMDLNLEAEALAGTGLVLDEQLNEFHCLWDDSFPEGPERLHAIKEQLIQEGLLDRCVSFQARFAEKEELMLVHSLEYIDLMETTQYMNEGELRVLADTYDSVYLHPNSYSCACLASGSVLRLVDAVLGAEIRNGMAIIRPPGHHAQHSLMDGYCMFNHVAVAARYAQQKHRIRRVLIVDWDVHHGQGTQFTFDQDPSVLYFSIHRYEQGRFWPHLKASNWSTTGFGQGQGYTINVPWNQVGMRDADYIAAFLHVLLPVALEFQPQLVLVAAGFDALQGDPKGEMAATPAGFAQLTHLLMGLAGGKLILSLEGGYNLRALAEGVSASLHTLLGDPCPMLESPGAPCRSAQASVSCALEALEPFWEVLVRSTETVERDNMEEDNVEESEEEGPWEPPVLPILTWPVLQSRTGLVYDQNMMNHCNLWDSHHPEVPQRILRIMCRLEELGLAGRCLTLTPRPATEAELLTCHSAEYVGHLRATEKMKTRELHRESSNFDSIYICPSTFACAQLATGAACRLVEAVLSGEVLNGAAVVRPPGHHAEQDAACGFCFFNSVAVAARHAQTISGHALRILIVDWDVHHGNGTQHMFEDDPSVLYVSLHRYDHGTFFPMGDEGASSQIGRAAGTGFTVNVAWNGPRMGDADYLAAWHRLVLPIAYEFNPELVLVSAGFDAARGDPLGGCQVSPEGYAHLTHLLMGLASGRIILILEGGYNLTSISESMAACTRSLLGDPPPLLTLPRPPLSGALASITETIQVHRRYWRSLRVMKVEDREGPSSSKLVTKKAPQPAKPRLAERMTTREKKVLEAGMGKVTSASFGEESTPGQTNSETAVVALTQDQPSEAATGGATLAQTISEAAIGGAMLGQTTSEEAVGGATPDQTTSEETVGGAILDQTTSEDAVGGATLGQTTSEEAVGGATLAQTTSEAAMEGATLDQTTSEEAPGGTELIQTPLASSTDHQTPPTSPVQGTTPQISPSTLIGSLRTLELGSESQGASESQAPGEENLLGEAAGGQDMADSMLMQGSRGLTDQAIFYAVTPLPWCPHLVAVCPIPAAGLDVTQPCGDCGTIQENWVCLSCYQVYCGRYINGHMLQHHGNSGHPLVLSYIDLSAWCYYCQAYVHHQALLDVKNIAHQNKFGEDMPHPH

[2] = Antiproliferative activity against human TR-146 cells assessed as reduction in cell viability measured after 48 hrs by alamar blue dye based spectrofluorometry; assay type: functional; settings: TR146, 48 h
[3] = tested on: Ca9-22; test: Antiproliferative activity against human Ca9-22 cells assessed as reduction in cell viability measured after 48 hrs by alamar blue dye based spectrofluorometry; assay type: functional; settings: Ca9-22, 48 h
[4] = molecular target: Histone deacetylase 1 (Homo sapiens, UniProt Q13547); test: Inhibition of full length C-terminal His/FLAG-tagged human HDAC1 expressed in baculovirus expression system using ZMAL as substrate incubated for 90 mins by fluorescence assay
[5] = organism: Homo sapiens; test: Selectivity ratio of IC50 for full length C-terminal His/FLAG-tagged human HDAC1 expressed in baculovirus expression system to IC50 full length N-terminal GST-tagged human HDAC6 expressed in baculovirus expression system
[6] = Mutagenicity in Salmonella typhimurium TA100 at 24 to 40 uM measured after 90 mins in absence of S9 fraction by Ames test; assay type: toxicity; settings: salmonella enterica subsp. enterica serovar typhimurium, s9, 1.5 h, dose 24-40 µM
[7] = tested on: OE33; test: Antiproliferative activity against human OE33 cells assessed as reduction in cell viability measured after 72 hrs by MTT assay; assay type: functional, cell-based; settings: OE33, 72 h
[8] = tested on: KYSE-520 cell line; test: Antiproliferative activity against human KYSE520 cells assessed as reduction in cell viability measured after 48 hrs by alamar blue dye based spectrofluorometry; assay type: functional; settings: KYSE-520, 48 h
[9] = molecular target: T2, Protein deacetylase HDAC6 (Homo sapiens) (UniProt Q9UBN7); test: Inhibition of HDAC6 in human MEC1 cells assessed as reduction in STAT3 phosphorylation at 5 to 10 uM measured after 30 hrs by immunoblot assay; assay type: cell-based; settings: dose microM 5-10, time 30.0 hrs
T2 sequence (whole entry): T1 sequence (Q9UBN7 whole entry)

[10] = organism: Homo sapiens; test: Selectivity ratio of IC50 for human recombinant HDAC8 expressed in Escherichia coli to IC50 full length N-terminal GST-tagged HDAC6 expressed in baculovirus expression system
[11] = Mutagenicity in Salmonella typhimurium TA100 at 24 to 40 uM measured after 90 mins in presence of S9 fraction by Ames test; assay type: toxicity, subcellular; settings: salmonella enterica subsp. enterica serovar typhimurium, s9, 1.5 h, dose 24-40 µM
[12] = molecular target: T2, Protein deacetylase HDAC6 (Homo sapiens); test: Inhibition of HDAC6 in human U-266 cells assessed as reduction in STAT3 phosphorylation at 25 uM measured after 4 to 48 hrs by immunoblot assay; assay type: cell-based; settings: time hrs 4-48
[13] = Cytotoxicity against mouse NIH3T3 cells assessed as reduction in cell viability measured after 24 hrs by neutral red uptake assay; assay type: cell-based; settings: read-out: TC50
[14] = Mutagenicity in Salmonella typhimurium TA98 at 8 to 160 uM measured after 90 mins in absence of S9 fraction by Ames test; assay type: toxicity; settings: salmonella enterica subsp. enterica serovar typhimurium, s9, 1.5 h, dose 8-160 µM
[15] = Mutagenicity in Salmonella typhimurium TA98 at 8 to 160 uM measured after 90 mins in presence of S9 fraction by Ames test; assay type: toxicity, subcellular; settings: salmonella enterica subsp. enterica serovar typhimurium, s9, 1.5 h, dose 8-160 µM
[16] = molecular target: T3, Histone deacetylase 8 (Homo sapiens, UniProt Q9BY41); test: Inhibition of human recombinant HDAC8 expressed in Escherichia coli using Fluor de Lys substrate preincubated for 15 mins followed by substrate addition and measured after 60 mins by fluorescence assay
T3 sequence (Q9BY41 whole entry): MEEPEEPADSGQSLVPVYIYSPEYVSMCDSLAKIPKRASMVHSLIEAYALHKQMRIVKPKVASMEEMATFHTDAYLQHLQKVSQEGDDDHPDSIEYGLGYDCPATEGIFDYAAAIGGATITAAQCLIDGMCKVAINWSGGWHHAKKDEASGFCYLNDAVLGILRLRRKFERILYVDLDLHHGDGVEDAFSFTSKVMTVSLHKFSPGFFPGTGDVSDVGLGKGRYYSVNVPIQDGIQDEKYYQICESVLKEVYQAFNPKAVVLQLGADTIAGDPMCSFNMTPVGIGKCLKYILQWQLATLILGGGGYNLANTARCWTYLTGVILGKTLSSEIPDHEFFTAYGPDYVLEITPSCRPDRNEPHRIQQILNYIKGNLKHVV

[17] = Mutagenicity in Salmonella typhimurium TA100 at 8 uM measured after 90 mins in absence of S9 fraction by Ames test; assay type: toxicity; settings: salmonella enterica subsp. enterica serovar typhimurium, s9, 1.5 h
[18] = tested on: U-937; test: Cell cycle arrest in human U-937 cells assessed as reduction in accumulation at S-phase at 10 uM measured after 24 to 48 hrs by propidium iodide staining based flow cytometry; assay type: functional; settings: time hrs 24-48
[19] = tested on: NB-4; test: Cell cycle arrest in human NB-4 cells at 5 to 10 uM measured after 24 to 48 hrs by propidium iodide staining based flow cytometry; assay type: functional; settings: dose microM 5-10, time hrs 24-48
[20] = tested on: KYSE-520 cell line; test: Induction of apoptosis human KYSE520 cells at 30 to 100 uM measured after 48 hrs by Annexin-V/propidium iodide staining based assay; assay type: functional, cell-based; settings: dose microM 30-100, time 48.0 hrs
[21] = tested on: NB-4; test: Induction of apoptosis in human NB-4 cells assessed as increase in cleaved PARP expression at 10 uM measured after 24 to 48 hrs by Western blot analysis; assay type: functional, cell-based; settings: time hrs 24-48
[22] = Mutagenicity in Salmonella typhimurium TA100 at 8 uM measured after 90 mins in presence of S9 fraction by Ames test; assay type: toxicity, subcellular; settings: salmonella enterica subsp. enterica serovar typhimurium, s9, 1.5 h
[23] = molecular target: T2, Protein deacetylase HDAC6 (Homo sapiens); test: Inhibition of HDAC6 in human U-266 cells assessed as reduction in STAT3 phosphorylation measured after 4 to 48 hrs by immunoblot assay; assay type: cell-based; settings: time hrs 4-48
[24] = tested on: Histone deacetylase; test: Inhibition of HDAC in human NB-4 cells assessed as effect on histone acetylation at 10 uM measured after 24 to 48 hrs by Western blot analysis; assay type: cell-based; settings: nb-4, 10 µM, time 24-48 hrs
[25] = tested on: U266B; test: Induction of apoptosis in human U266B cells at 25 to 50 uM measured after 48 hrs by Annexin-V/propidium iodide staining based flow cytometry; assay type: functional, cell-based; settings: dose microM 25-50, time 48.0 hrs
[26] = Antiproliferative activity against human U266B cells assessed as reduction in cell viability measured after 24 to 48 hrs by alamar blue dye based fluorescence assay; assay type: functional
[27] = tested on: NB-4; test: Cell cycle arrest in human NB-4 cells at 5 to 10 uM measured after 48 hrs by propidium iodide staining based flow cytometry; assay type: functional; settings: dose microM 5-10, time 48.0 hrs
[28] = molecular target: T2, Protein deacetylase HDAC6 (Homo sapiens); test: Inhibition of HDAC6 in human NB-4 cells assessed as increase in tubulin acetylation at 10 uM measured after 24 to 48 hrs by Western blot analysis; assay type: cell-based; settings: time hrs 24-48
[29] = tested on: U-937; test: Cell cycle arrest in human U-937 cells assessed as increase in accumulation at pre-G1 phase at 10 uM measured after 48 hrs by propidium iodide staining based flow cytometry; assay type: functional
[30] = molecular target: T2, Protein deacetylase HDAC6 (Homo sapiens); test: Inhibition of HDAC6 in human MEC1 cells assessed as reduction in STAT3 phosphorylation measured after 30 hrs by immunoblot assay; assay type: cell-based

Histone deacetylase 1, sequence (Q13547 whole entry): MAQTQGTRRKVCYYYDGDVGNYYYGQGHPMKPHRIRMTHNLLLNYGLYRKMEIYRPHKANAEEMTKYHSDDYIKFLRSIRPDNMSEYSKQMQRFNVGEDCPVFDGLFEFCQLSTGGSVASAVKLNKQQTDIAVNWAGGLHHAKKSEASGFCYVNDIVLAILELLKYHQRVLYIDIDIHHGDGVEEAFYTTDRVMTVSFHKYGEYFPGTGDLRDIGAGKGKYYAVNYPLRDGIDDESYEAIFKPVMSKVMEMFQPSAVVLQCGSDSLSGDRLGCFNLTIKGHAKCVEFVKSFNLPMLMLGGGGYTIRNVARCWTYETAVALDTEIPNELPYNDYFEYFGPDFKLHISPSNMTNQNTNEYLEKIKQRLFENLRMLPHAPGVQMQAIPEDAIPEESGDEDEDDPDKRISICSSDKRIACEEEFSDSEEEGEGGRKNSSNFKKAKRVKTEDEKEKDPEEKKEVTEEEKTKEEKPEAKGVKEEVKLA

SMILES	pIC50 [1]	pIC50 [4]	Ratio IC50 [5]	pIC50 [16]	pIC50 [2]	pIC50 [3]	Activity [6]	pIC50 [7]	pIC50 [8]	Activity [11]	CC50 at 24 h [13] [µM]	Activity [14]	Activity [15]	Activity [21]	other results
O=C(NO)c1ccc(CN2CCC3(CC2)CN(C(=O)c2ccccc2)c2c(-c4ccccc4)cccc23)cc1	6.33	5.33	10	–	–	–	–	–	–	–	–	–	–	–	–
CN1CC2(CCN(Cc3ccc(C(=O)NO)cc3)CC2)c2ccccc21	6.58	4.65	85	5.72	< 3.00	< 3.00	Toxic	4.75	3.71	Toxic	24	Non-Toxic	Non-Toxic	–	inhibition [9]: Active; Ratio IC50 [10]: 7; inhibition [12]: Active
O=C(NO)c1ccc(CN2CCC3(CC2)CN(Cc2ccccc2)c2ccccc23)cc1	6.25	5.19	12	–	4.74	4.72	–	5.25	4.89	–	40	Non-Toxic	Non-Toxic	Active	Activity [17]: Toxic; Activity [18]: Active; Activity [19]: Active; Activity [20]: Active; Activity [22]: Toxic

These reach a higher pIC50 [1]. Values come first.

pIC50 [1]	pIC50 [4]	Ratio IC50 [5]	pIC50 [16]	SMILES	pIC50 [2]	pIC50 [3]	Activity [6]	pIC50 [7]	pIC50 [8]	Activity [11]	CC50 at 24 h [13] [µM]	Activity [14]	Activity [15]	Activity [21]	other results
6.81	5.00	65	–	O=C(NO)c1ccc(CN2CCC3(CC2)CN(C(=O)c2ccccc2)c2ccccc23)cc1	< 3.00	< 3.00	–	–	–	–	–	–	–	–	–
7.31	5.17	140	5.50	O=C(NO)c1ccc(COC(=O)N2CCC3(CC2)CN(Cc2ccccc2)c2ccccc23)cc1	3.88	< 3.00	Toxic	4.42	–	Toxic	40	–	–	Active	inhibition [23]: Dose-dependent effect; inhibition (INH) [24]: Not Active; Activity [25]: Active; pIC50 [26]: 4.69; Activity [27]: Active; inhibition [28]: Active; Activity [29]: Active; inhibition [30]: Dose-dependent effect
